Laboratory results as given in patent US10682323B2, “Therapeutic agent for glaucoma” (TOA EIYO LTD., priority 2016, dated 2020).

Tests used:
[1] = Determination of Log D value (flask shaking method); format: physicochemical; conditions: pH 6.8; partition between n-octanol and second solution for the disintegration test (16th revised Japanese Pharmacopoeia), room temperature
Procedure: More specifically, the Log D is more preferably 1.6 or more and 2.3 or less, still more preferably 1.8 or more and 2.2 or less, and particularly preferably 1.8 or more and 2.1 or less. Here, the Log D value in the present invention is a compound partition coefficient between n-octanol and a second solution of a disintegration test of the 16th revised Japanese Pharmacopoeia.
The Log D value was determined using a flask shaking method, where a test compound partition coefficient between n-octanol and the second solution for the disintegration test defined in the 16th revised Japanese Pharmacopoeia was calculated. Specifically, in a microtube containing 2 mg of the test compound, n-octanol (0.25 mL) and the second solution for the disintegration test (0.25 mL) were mixed. The tube was shaken in a multi shaker at room temperature for 60 minutes, and allowed to stand until the two phases were completely separated. In the microtube, 10 μL of an n-octanol phase was diluted with 190 μL of 85% methanol and mixed, thereby obtaining an organic phase test solution. 100 μL of the second solution phase for the disintegration test was diluted with 100 μL of 50% methanol, and mixed, thereby obtaining an aqueous phase test solution. The organic phase test solution and the aqueous phase test solution were filtered, respectively, and the concentration of the test compound in these test solutions were measured, using high performance liquid chromatography. Then, from the measured concentration and dilution rate, the Log D was calculated.
That is, the Log D of the present specification is represented by the following equation: Log D=Log10([concentration of test compound in organic phase test solution]/[concentration of test compound in aqueous phase test solution])+1 [Equation 1]
The second solution for the disintegration test herein refers to, as defined in the 16th revised Japanese Pharmacopoeia, a liquid obtained by adding to 250 mL of a 0.2 mol/L potassium dihydrogenphosphate reagent, 118 mL of a 0.2 mol/L sodium hydroxide reagent, and water for adjusting to 1000 mL volume.

human sGC = molecular target: T1, human sGC (Homo sapiens, UniProt Q02153); assay: Measurement of sGC activating effect in CHO-K1 cells stably expressing human sGC and mouse CNGA2; format: cell-based; conditions: CHO-K1 cells expressing human sGC and mouse CNGA2, Fura2 calcium readout, 10 μmol/L ODQ in assay buffer
T1 construct: expressed in transfected cells; host or cells: CHO-K1 cells (Chinese hamster ovary), stably co-expressing mouse CNGA2 as the calcium read-out channel
T1 sequence (Q02153 1-619): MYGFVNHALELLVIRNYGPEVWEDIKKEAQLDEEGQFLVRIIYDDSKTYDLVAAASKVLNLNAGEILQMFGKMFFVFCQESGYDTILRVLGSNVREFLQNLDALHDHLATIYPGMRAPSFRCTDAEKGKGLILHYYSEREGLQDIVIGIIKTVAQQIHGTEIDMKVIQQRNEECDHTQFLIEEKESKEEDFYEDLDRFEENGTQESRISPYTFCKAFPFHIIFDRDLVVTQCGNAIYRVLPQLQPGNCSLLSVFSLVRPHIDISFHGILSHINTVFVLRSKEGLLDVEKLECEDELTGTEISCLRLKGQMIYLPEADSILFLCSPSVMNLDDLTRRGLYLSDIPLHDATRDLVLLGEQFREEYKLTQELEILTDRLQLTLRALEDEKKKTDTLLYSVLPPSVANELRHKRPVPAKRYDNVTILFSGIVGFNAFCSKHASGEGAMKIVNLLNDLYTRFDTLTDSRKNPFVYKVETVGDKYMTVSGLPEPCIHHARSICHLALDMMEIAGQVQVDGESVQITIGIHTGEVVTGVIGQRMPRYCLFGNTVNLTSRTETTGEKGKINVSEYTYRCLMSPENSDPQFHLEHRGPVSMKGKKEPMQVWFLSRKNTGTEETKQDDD
T1 sequence (Q02108 1-690 partner): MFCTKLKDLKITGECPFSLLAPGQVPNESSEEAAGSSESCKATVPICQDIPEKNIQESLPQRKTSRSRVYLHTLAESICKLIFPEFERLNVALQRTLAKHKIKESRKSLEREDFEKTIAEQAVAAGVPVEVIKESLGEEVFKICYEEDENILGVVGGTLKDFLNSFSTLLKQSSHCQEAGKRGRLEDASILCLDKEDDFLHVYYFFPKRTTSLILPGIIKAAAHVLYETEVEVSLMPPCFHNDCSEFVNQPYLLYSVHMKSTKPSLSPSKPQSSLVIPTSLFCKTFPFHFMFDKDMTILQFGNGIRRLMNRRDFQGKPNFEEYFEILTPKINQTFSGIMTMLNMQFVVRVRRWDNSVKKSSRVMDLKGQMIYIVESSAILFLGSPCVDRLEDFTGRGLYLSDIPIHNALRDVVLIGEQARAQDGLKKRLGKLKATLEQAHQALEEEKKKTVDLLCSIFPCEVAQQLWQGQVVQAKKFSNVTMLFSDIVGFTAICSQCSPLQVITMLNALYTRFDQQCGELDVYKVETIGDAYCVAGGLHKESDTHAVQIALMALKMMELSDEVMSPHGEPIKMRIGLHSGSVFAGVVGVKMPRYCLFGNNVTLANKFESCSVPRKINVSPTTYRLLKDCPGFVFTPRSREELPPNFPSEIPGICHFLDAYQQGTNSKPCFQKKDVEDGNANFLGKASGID
Procedure: Chinese Hamster ovary cells (CHO-K1 cells) modified for stably expressing human sGC α subunit and β subunit, and a mouse cyclic nucleotide gated channel (CNGA2) were used in the test.
The CHO-K1 cells stably expressing human sGC and mouse CNGA2 were cultured at 37° C. in a F-12 medium supplemented with 10% (v/v) fetal bovine serum (FBS), penicillin (100 U/mL), streptomycin (100 μg/mL), G418 (250 μg/mL), and Zeocin (250 μg/mL). The cells were suspended in a culture medium, seeded in a 96 well plate, and cultured at 37° C. for 24 hours. The cells were washed with an assay buffer 1 (140 mmol/L of sodium chloride, 5 mmol/L of potassium chloride, 0.5 mmol/L of magnesium chloride, 0.01 mmol/L of calcium chloride, 10 mmol/L of glucose, 0.4 mmol/L of magnesium sulfate, 10 mmol/L of 4-(2-hydroxyethyl)piperazine-1-yl ethanesulfonic acid, 125 μmol/L of sulfinpyrazone, pH 7.4), and then an indicator solution in which Fura2-AM as a fluorescent Ca2+ indicator is dissolved in assay buffer 1 at a concentration of 5 μmol/L was added thereto, and cultured at 37° C. for 60 minutes. The culture medium was removed, the cells were washed with assay buffer 1, the test compound solution was added thereto, and cultured at room temperature for 10 minutes. The plate was mounted on a fluorescence microplate reader (FlexStation II, available from Molecular Devices) with setting of excitation wavelengths of 340 and 380 nm and a detection wavelength of 510 nm, an intracellular calcium concentration was measured as a fluorescent intensity ratio obtained from each excitation wavelength.
In this test, the solution of the test compound was prepared by dissolving each test compound in DMSO at a concentration of 10 mmol/L, and then diluting the solution with assay buffer 2 (140 mmol/L of sodium chloride, 5 mmol/L of potassium chloride, 0.5 mmol/L of magnesium chloride, 1 mmol/L of calcium chloride, 10 mmol/L of glucose, 0.4 mmol/L of magnesium sulfate, 10 mmol/L of 4-(2-hydroxyethyl)piperazine-1-yl ethanesulfonic acid, 125 μmol/L of sulfinpyrazone, 100 μmol/L of isobutylmethylxanthine, 10 μmol/L of 1H-[1,2,4]-oxadiazole [4,3-a]quinoxaline-1-on (hereinafter, referred to as ODQ), pH 7.4), in order to adjust the concentration of 10 μmol/L for testing. As a control solution, a DMSO diluted solution was used, instead of the test compound solution.
The activity of the test compound was calculated as an increase rate (%) of the sGC activity in the test compound solution relative to the sGC activity in the control solution, by dividing a fluorescent intensity ratio in adding the test compound by a fluorescent intensity ratio of the control solution, and subtracting the sGC activity in the control solution (100%) therefrom. An EC50 value was calculated from the activity of the test compound at concentrations of 0.0001, 0.001, 0.003, 0.01, 0.03, 0.1, 1, and 10 μmol/L, using a 4 parameter losgistic model from Assay Explorer (available from Dssault Systèmes BIOVIA).

| logD [1] | EC50 (human sGC) [nM] | Compound |
| --- | --- | --- |
| 2.06 | 15.9 | O=C(O)CCCCN(CCc1ccccc1OCc1ccc(C#CC2CC2)cc1)C1CCCc2cc(C(=O)O)ccc21 (centres unmarked) [Compound No. 21, 5-[N-(4-carboxybutyl)-N-[2-[2-[4-(2-cyclopropylethynyl)benzyloxy]phenyl]ethyl]amino]-5,6,7,8-tetrahydronaphthalene-2-carboxylic acid] |
| 2.4 | 8.73 | O=C(O)CCCCN(CCc1ccccc1OCc1ccc(OCc2ccccc2)cc1)C1CCOc2cc(C(=O)O)ccc21 (centres unmarked) [Compound No. 24, 4-[N-[2-[2-(4-benzyloxybenzyloxy)phenyl]ethyl]-N-(4-carboxybutyl)amino]-chromane-7-carboxylic acid] |
| 2.24 | 15.6 | O=C(O)CCCCN(CCc1ccccc1OCc1ccc(OCc2ccccc2)cc1)C1CCCc2cc(C(=O)O)ccc21 (centres unmarked) [Compound No. 26, 5-[N-[2-[2-(4-benzyloxybenzyloxy)phenyl]ethyl]amino-N-(4-carboxybutyl)]-5,6,7,8-tetrahydronaphthalene-2-carboxylic acid] |
| 2.35 | 2.47 | O=C(O)CCCCN(Cc1ccc(C(=O)O)cc1)C[C@H](OCc1ccc(Oc2ccccc2)cc1)c1cccc(Cl)c1 [Compound No. 23, (−)-4-([N-(4-carboxybutyl)-N-[(2R)-2-(3-chlorophenyl)-2-[4-(phenyloxy)benzyloxy]ethyl]amino]methyl)benzoic acid] |
| 1.87 | 3.96 | O=C(O)CCCCN(CCc1ccccc1OCc1ccc2c(c1)CCCC2)C1CCCc2cc(C(=O)O)ccc21 (centres unmarked) [Compound No. 20, 5-[N-(4-carboxybutyl)-N-[2-[2-(1,2,3,4-tetrahydronaphthalene-6-ylmethoxy)phenyl]ethyl]amino]-5,6,7,8-tetrahydronaphthalene-2-carboxylic acid] |
| 2.18 | 8.86 | O=C(O)CCCCN(CCc1ccccc1OCc1ccc(COc2ccccc2)cc1)C1CCCc2cc(C(=O)O)ccc21 (centres unmarked) [Compound No. 22, 5-[N-(4-carboxybutyl)-N-[2-[2-(4-phenoxymethylbenzyloxy)phenyl]ethyl]amino]-5,6,7,8-tetrahydronaphthalene-2-carboxylic acid] |

Further lines, the compound ahead of its results:

| Compound | logD [1] | EC50 (human sGC) [nM] |
| --- | --- | --- |
| O=C(O)CCCCN(CCc1ccccc1OC[C@@H]1CCc2ccccc2C1)C1CCCc2cc(C(=O)O)ccc21 (stereo partly drawn) [Compound No. 16, 5-[N-(4-carboxybutyl)-N-[2-[2-((2R)-1,2,3,4-tetrahydronaphthalene-2-ylmethoxy)phenyl]ethyl]amino]-5,6,7,8-tetrahydronaphthalene-2-carboxylic acid] | 1.99 | 7.5 |
| O=C(O)CCCCN(CCc1ccccc1OCc1cc2c(s1)CCCC2)C1CCCc2cc(C(=O)O)ccc21 (centres unmarked) [Compound No. 19, 5-[N-(4-carboxybutyl)-N-[2-[2-(4,5,6,7-tetrahydrobenzo[b]thiophene-2-ylmethoxy)phenyl]ethyl]amino]-5,6,7,8-tetrahydronaphthalene-2-carboxylic acid] | 1.74 | 33.5 |
| O=C(O)CCCCN(Cc1ccc(C(=O)O)cc1)CC(OCc1ccc(CCc2ccccc2)cc1)c1cccs1 (centres unmarked) [Compound No. 7, ([N-(4-carboxybutyl)-N-[2-[4-(2-phenylethyl)benzyloxy]-2-(2-thienyl)ethyl]amino]methyl)benzoic acid] | 2.11 | 3.92 |
| N#Cc1cccc([C@H](CN(CCCCC(=O)O)Cc2ccc(C(=O)O)cc2)OCc2ccc(CCc3ccccc3)cc2)c1 [Compound No. 1, (−)-4-([N-(4-carboxybutyl)-N-[(2R)-2-(3-cyanophenyl)-2-[4-(2-phenylethyl)benzyloxy]ethyl]amino]methyl)benzoic acid] | 2.03 | 8.8 |
| O=C(O)CCCCN(Cc1ccc(C(=O)O)cc1)C[C@H](OCc1ccc(CCc2ccccc2)cc1F)c1ccccc1 [Compound No. 3, (−)-4-([N-(4-carboxybutyl)-N-[(2R)-2-[2 fluoro-4-(2-phenylethyl)benzyloxy]-2-phenylethyl]amino]methyl)benzoic acid] | 1.99 | 2.35 |
| CC(C)(C)c1cccc(COc2ccccc2CCN(CCCCC(=O)O)[C@H]2CCCc3cc(C(=O)O)ccc32)c1 [Compound No. 9, (+)-(5S)-5-[N-[2-[2-(3-tert-butylbenzyloxy)phenyl]ethyl]-N-(4-carboxybutyl)amino]-5,6,7,8-tetrahydronaphthalene-2-carboxylic acid] | 2.09 | 7.09 |
| CC(C)(C)c1ccccc1COc1ccccc1CCN(CCCCC(=O)O)C1CCCc2cc(C(=O)O)ccc21 (centres unmarked) [Compound No. 15, 5-[N-[2-[2-(2-tert-butylbenzyloxy)phenyl]ethyl]-N-(4-carboxybutyl)amino]-5,6,7,8-tetrahydronaphthalene-2-carboxylic acid] | 1.95 | 13.4 |
